{"source": "patent US8304448B2", "about": "“Method for the treatment of metabolic disorder containing benzazole derivatives as an active ingredient” (Korea Research Institute of Bioscience and Biotechnology, priority 2006, dated 2012)", "key": {"Sprague-Dawley rats": {"tested_on": "Sprague-Dawley rats", "test": "Acute toxicity, oral administration for two weeks, rats", "type": "in vivo", "details": "oral 100 and 250 mg/kg for two weeks", "experimental": "(§1) An assay of the benzazole derivatives of Chemical Formula 1 in accordance with the present invention was performed for acute toxicity on mice (20±5 g, Central Lab. Animal Inc.) and rats (235±10 g, Central Lab. Animal Inc.).\n(§2) For this, ICR mice and Sprague-Dawley rats were assigned to 4 groups of 10 and orally administered with Compound 22 in doses of 100 and 250 mg/kg for two weeks."}, "DGAT [1]": {"tested_on": "DGAT", "test": "Assay for inhibitory activity against DGAT ([14C]triacylglycerol formation, rat microsomal protein)", "type": "biochemical", "details": "rat microsomal protein as enzyme source"}, "DGAT [2]": {"tested_on": "DGAT", "test": "Assay for inhibitory effect on DGAT in cell (intracellular triglyceride production from [14C]acetate in HepG2 cells)", "type": "cell-based, human", "experimental": "The effect of the benzazole derivatives of Chemical Formula 1 in accordance with the present invention on DGAT was examined with HepG2 cells, hepatic cells derived from the human liver, as follows.\nHepG2 cells, purchased from ATCC, were cultured in Eagle's minimum essential medium (MEM), 2 mM L-glutamine, with Earle's balanced salt solution (BSS) adjusted to contain, 1.5 g/L sodium bicarbonate, 0.1 mM non-essential amino acids and 1 mM sodium pyruvate, supplemented with 10% fetal bovine serum (FBS) and 1% antibiotics (100 U/ml penicillin and 100 µg/ml streptomycin) at 37° C. in a 5% CO2 incubator.\nIntracellular DGAT activity was represented by the amount of triglycerides produced in the cultured HepG2 cells while the compounds (4, 8, 10, 22, 24, 25, 26, 39 and 31) of Chemical Formula 1 were assayed for inhibitory activity against DGAT by measuring the change in intracellular triglyceride production after the addition thereof.\nCells were plated at a density of 1×10^6 cell/ml per well into 24-well plates and incubated for 24 hours. Then, the medium was exchanged with FBS-free MEM and pre-treated with samples for 1 hour. Thereafter, 0.2 mCi of [^14C]acetate (Amersham) was added as a substrate to the cells, followed by incubation for 1 hour. The production of triglyceride was catalyzed by DGAT so that DGAT activity was determined by the amount of the triglyceride product, which could be measured by radioactivity. For use, the samples were dissolved in dimethyl sulfoxide (DMSO). In a control, triglycerides were synthesized using DMSO without any sample, with the production yield thereof given as 100.\nThe amount of the glyceride products synthesized was determined as follows. After completion of synthesis, the cells were suspended in PBS (phosphate-buffer-saline) to remove the substrate [^14C]acetate, whether unabsorbed into the cells or remaining unreacted, and total lipids, including triglycerides, were extracted twice for 30 min with 0.5 ml of an extraction solvent mixture (hexane:isopropanol=3:2, v:v). 1 ml of the extract was concentrated with nitrogen gas.\nThe total lipid residue thus formed was dissolved in an organic solvent mixture (chloroform:methanol=2:1) and loaded dropwise onto a thin layer chromatography plate (TLC; silica gel 60F254, 0.5 mm, Merck) using a mixture of 80:20:1 hexane:diethylether:acetic acid (v:v:v) as a developing solvent. After the separation of triglycerides (Rf value: 0.4) on TLC, the plate was brought into contact with an autoradiographic film for three hours, followed by image analysis (BAS-1500, Fuji Photo Film Co. Ltd.) to determine the [^14C] radioactivity of the triglycerides. The cells left after the extraction were suspended in 0.3 ml of a 0.1 N sodium hydroxide solution to measure the cellular protein concentration thereof.\nThe empirical values were obtained by dividing triglyceride radioactivity by protein level, with correction for experimental errors between test groups."}, "ICR mice": {"tested_on": "ICR mice", "test": "Acute toxicity, oral administration for two weeks, mice", "type": "in vivo", "details": "oral 100 and 250 mg/kg for two weeks", "experimental": "as §1, §2"}}, "data": [{"smiles": "O=C(NCc1ccco1)c1ccc2oc(COc3ccc(C45CC6CC(CC(C6)C4)C5)cc3)nc2c1", "note": "[Cpd. 22, 2-(4-adamantan-1-yl-phenoxymethyl)-benzoxazole-5-carboxylic acid (furan-2-ylmethyl)-amide]", "values": [{"measurement": "apparent symptoms", "setting": "Sprague-Dawley rats", "value": "no apparent symptoms different from the control"}, {"measurement": "DGAT (% inhibition in 5 μM)", "setting": "DGAT [1]; 5 μM", "value": 42.8, "unit": "%"}, {"measurement": "DGAT (% inhibition in 25 μM)", "setting": "DGAT [1]; 25 μM", "value": 78.03, "unit": "%"}, {"measurement": "inhibition of the biosynthesis of triglycerides", "setting": "DGAT [2]; 10 μM", "value": 32.2, "unit": "%"}, {"measurement": "Production Yield of Triglyceride (%)", "setting": "DGAT [2]; final level 10 μM, DMSO control given as 100", "value": "67.8 ± 7.2", "unit": "%"}, {"measurement": "apparent symptoms", "setting": "ICR mice", "value": "no apparent symptoms different from the control"}]}]}
